This is an account of results in PubChem BioAssay (NCI).

The structures appear in SMILES notation. Values joined by “and” are separate entries in the source; they are usually repeats but may differ in a detail not shown here. Identical values can stand only once.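 In this assay, cells in 96-well plates receive the compound at five concentrations for 48 hours. Endpoints are linearly interpolated between the surrounding concentrations. GI50: concentration for 50% inhibition of growth. Definition used: TGI = concentration required for complete inhibition of growth.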

Common to all, as to test: NCI-60 cell line screen, 48 h
Assay [1] relates to SK-MEL-2 melanoma.
Assay [2] has as its system TK-10 renal.
Assay [3] relates to CCRF-CEM leukemia.
The subject of assay [4] is SK-MEL-28 melanoma.
Assay [5] relates to NCI-H522 lung.
Assay [6] concerns HCC-2998 colon.
Assay [7] concerns LOX IMVI melanoma.
The subject of assay [8] is MOLT-4 leukemia.
Assay [9] deals with KM12 colon.
In assay [10] the test system is SR leukemia.
Assay [11] relates to HOP-92 NSCLC.
Assay [12] deals with IGROV1 ovarian.
For assay [13], the system named is NCI/ADR-RES ovarian.
The subject of assay [14] is PC-3 prostate.
Assay [15] has as its system DU-145 prostate.
The test system of assay [16] is MDA-MB-435.

For `CC1(C)O[C@@H](C[C@]2(C#N)C[C@H](CCl)OC(C)(C)O2)C[C@@H](C#N)O1`, the TGI in assay [1], in assay [2], in [3], in assay [4], in assay [5] and in assay [6] was above 100 µM each time. Further, the TGI in assay [7], in [8], in assay [9], in assay [10], in assay [11] and in assay [12] was above 100 µM throughout.
Regarding `CC(=O)C(C)(C)CCC(C)(C)C(C)=O`, the TGI in assay [1], in assay [2], in assay [3], in assay [4], in [13] and in assay [5] was above 100 µM throughout. Also, the TGI in [6], in assay [14], in [15], in [7], in [8] and in assay [9] was above 100 µM in each case. Also, the TGI in assay [10] and in [12] was above 100 µM throughout.
`COC(=O)Cn1cnc2c(Cl)nc(Nc3ccccc3)nc21`: the TGI in [1] is 48.8 µM; in [2] it was above 100 µM; in assay [3] it was 96.7 µM; in assay [4], above 100 µM; in [13] it was above 100 µM; in [6], 82.8 µM. Also, the TGI was above 100 µM in [14]; 41.4 µM in assay [7]; 84.7 µM in [8]; above 100 µM in [9]; above 100 µM in [10]; 79.8 µM in assay [16]. Moreover, in [12], the TGI was 56.1 µM.
With `COC(=O)Nc1nc2ccc(NC(=O)c3ccc(I)cc3)cc2[nH]1`, the TGI in assay [1], in assay [2], in assay [3], in assay [4], in assay [13] and in assay [5] was above 100 µM throughout. The TGI in [14], in assay [15], in assay [7], in assay [8], in [9] and in assay [11] was above 100 µM each time. Further, the TGI in [16] and in [12] was above 100 µM throughout.
With `C=C1C(C)C2C(Cc3ccccc3)NC(=O)C23OC(=O)/C=C\CC(=O)CCC(C)C/C=C/C3C1O` (stereo not given), the TGI was 8.35 µM in assay [1]; 0.722 µM in [2]; 3.92 µM in [4]; 33.4 µM in [13]; 0.931 µM and 2.52 µM in assay [5]; 18.5 µM in assay [6]. For the same compound, the TGI in [7] was found to be 3.64 µM; in assay [8] it was 3.83 µM; in assay [9] it was 12.7 µM; in assay [11], 2.1 µM; in [12] it was 10.6 µM. Also, the GI50 is 0.135 µM and 0.216 µM in assay [3]; 0.366 µM in assay [5]; 1.01 µM in assay [8]; 0.345 µM in assay [11].
As to `Nc1c(S(=O)(=O)O)cc(S(=O)(=O)O)c2ccc(N=Nc3ccc(/C=C/c4ccc(N=Nc5ccc6c(S(=O)(=O)O)cc(S(=O)(=O)O)c(N)c6c5O)cc4S(=O)(=O)O)c(S(=O)(=O)O)c3)c(O)c12`, the TGI in assay [1], in [3], in assay [4], in assay [13], in [5] and in assay [6] was above 100 µM each time. Also, the TGI in assay [7], in [8], in [9], in assay [11] and in assay [12] was above 100 µM each time.
Turning to `CCN(CC)C(=O)Cn1c2c(c3ccccc31)CCCC2`, the TGI in [1], in [2], in assay [3], in assay [4], in [13] and in assay [6] was above 100 µM throughout. The TGI in assay [14], in assay [7], in assay [10], in [11], in [16] and in assay [12] was above 100 µM throughout.
Consider `COc1cc(N(CCC#N)CCC#N)ccc1/C=N\NC(=O)c1ccc(C)cc1`, for which the TGI in [1] is 32.6 µM; in [2], above 100 µM; in [3], above 100 µM; in assay [4], above 100 µM; in assay [13] it was above 100 µM; in assay [5], above 100 µM. In addition, the TGI was 31.1 µM in [14]; above 100 µM in assay [15]; above 100 µM in [7]; above 100 µM in [8]; above 100 µM in [9]; above 100 µM in assay [11]. The TGI in assay [16] and in assay [12] was above 100 µM throughout.
Turning to `O=[N+]([O-])/C(C(Cl)=C(Cl)Cl)=C(/Nc1cccc2cccnc12)n1nnc2ccccc21`, the TGI in [1] is 33.5 µM; in assay [3], above 100 µM; in assay [4], 33.5 µM; in assay [13], 53.7 µM; in assay [6], above 100 µM; in [14] it was 51.3 µM. Moreover, the results for the TGI in assay [8], in assay [9] and in [16] were above 100 µM, 29.5 µM and 33 µM, respectively.
On to `Cc1c2ccncc2c(C)c2c1[nH]c1ccc(OCCN(C)C)cc12`, for which the TGI was found to be 1.87 µM in assay [1]; 1.3 µM in [3]; 2.01 µM in assay [4]; 0.348 µM in assay [13]; 1.16 µM in [5]; 0.656 µM in assay [6]. The TGI in assay [7] was determined as 0.396 µM; in [8] it was 0.157 µM; in [9], 0.499 µM; in assay [11], 1.62 µM; in [12] it was 1.42 µM.
